Molecules are shown by their SMILES.

The series can be described thus: Thermo Scientific Acclaim RSLC 120 C18, 100 × 2.1 mm, 2.2 µm, 30 °C; A: 90% water + 10% methanol + 0.01% formic acid + 5 mM ammonium formate; B: methanol + 0.01% formic acid + 5 mM ammonium formate; gradient (min/%B) 0.1/1 3/39 14/99.9 16/99.9. The note with it: stereoisomer not certain.
With `c1cncc(C2CCCN2)c1` (stereo not given), the LC retention time stood at 3.14 min. With `CCN(CC)C(=O)NC1C=C2c3cccc4[nH]cc(c34)CC2N(C)C1` (stereo not given) the figure was 5.92 min; with `c1ccc2c(c1)Cc1cccnc1N1CCNCC21` (stereo not given), 5.31 min; with `CCOP(=S)(OCC)SCn1nnc2ccccc2c1=O`, 10.2 min. For the compound `Cc1onc(-c2ccccc2)c1-c1ccc(S(N)(=O)=O)cc1`, the LC retention time worked out at 7.37 min.

`CC1(OC(=O)C=Cc2ccccc2)CC(O)C2(O)C=COC(OC3OC(CO)C(O)C(O)C3O)C12` (stereo not given): the LC retention time amounted to 8.25 min.

`CCNC1CC(C)S(=O)(=O)c2sc(S(N)(=O)=O)cc21` (stereo not given): the LC retention time came out at 3.19 min.

On to `CC(NCCc1ccc(O)cc1)C(O)c1ccc(O)cc1` (stereo not given), for which the LC retention time amounted to 3.79 min.

As for `c1ccc2c(c1)Cc1ccccc1N1CCNCC21` (stereo not given), the LC retention time was found to be 6.86 min. With `CC(=O)OCCC(SC(C)=O)=C(C)N(C=O)Cc1cnc(C)nc1N` the figure was 4.46 min; with `CN(C)CCc1c[nH]c2ccc(O)cc12`, 2.82 min; with `COc1ccc(C(C[N+](C)(C)[O-])C2(O)CCCCC2)cc1` (stereo not given), 6.94 min. Next, `CC(C)NCC(O)COc1ccc(CC(=O)O)cc1` (stereo not given): 3.93 min.

As for `O=C(c1cccc2ccccc12)c1cn(CCCCCO)c2ccccc12`, the LC retention time came to 10 min. Next, `Nc1cc(-c2ccncc2)c[nH]c1=O`: 2.88 min; `CCOP(=O)(OCC)Oc1cc(C)nc(C(C)C)n1`: 8.65 min; `CCCn1c(C)c(C(=O)c2cccc3ccccc23)c2ccccc21`: 11.5 min. With `CC(C)NCC(O)c1ccc(N)c(C#N)c1` (stereo not given) the figure was 2.99 min; with `CC(Cc1ccc(C(C)C(=O)O)cc1)C(=O)O` (stereo not given), 6.99 min. Next, `CCOP(=S)(OCC)SCS(=O)(=O)C(C)(C)C`: 9.01 min. Turning to `CCNC(=O)c1ccc(OC)cc1`, the LC retention time was 5.59 min.

With `CSc1nnc(C(C)(C)C)c(=O)n1N`, the LC retention time amounted to 7.07 min.

Turning to `Cc1nc(N(C)C)nc(OC(=O)N(C)C)c1C`, the LC retention time is 7.77 min. Next, `COP(=S)(OC)SCn1nnc2ccccc2c1=O`: 8.89 min. With `CC(C)N(CCc1c[nH]c2cccc(O)c12)C(C)C` the figure was 4.34 min.

As for `CC(C)c1ccc(NC(N)=O)cc1`, the LC retention time was 7.76 min. With `NCCc1ccc(O)cc1` the figure was 2.28 min; with `COc1cc(NC(C)CCCN)c2ncccc2c1` (stereo not given), 6.82 min; with `N#CC(CCN1CCC(C(N)=O)(N2CCCCC2)CC1)(c1ccccc1)c1ccccc1`, 8.19 min. Next, `CNC(=O)Oc1cc(C)c(N(C)C)c(C)c1`: 9.3 min; `N#Cc1ccc(C(c2ccc(C#N)cc2)n2cncn2)cc1`: 6.33 min; `CC(C)C(O)(C(=O)OCC1=CCN2CCC(O)C12)C(C)O` (stereo not given): 3.65 min. On to `CCOc1ccccc1OS(=O)(=O)NC(=O)Nc1nc(OC)cc(OC)n1`, for which the LC retention time stood at 9.32 min. Next, `CNC(C)C(=O)c1ccccc1` (stereo not given): 3.68 min. Next, `CC(Cn1cnc2c(N)ncnc21)OCP(=O)(O)O` (stereo not given): 2.69 min; `CCCc1nn(C)c2c(=S)nc(-c3cc(S(=O)(=O)N4CC(C)NC(C)C4)ccc3OCC)[nH]c12` (stereo not given): 9.91 min; `Cc1ncc(CO)c(CO)c1O`: 2.18 min. With `CCC(Cc1ccc2c(c1)OCO2)NC` (stereo not given) the figure was 4.66 min; with `CC(CCc1ccccc1)NCC(O)c1ccc(O)c(C(N)=O)c1` (stereo not given), 5.74 min. With `CCN(CC)CCCN(c1ccccc1)C1Cc2ccccc2C1`, the LC retention time amounted to 8.85 min. Next, `COC(C)(C)CCCC(C)CC=CC(C)=CC(=O)OC(C)C` (stereo not given): 13.6 min; `COP(=S)(OC)Oc1ccc([N+](=O)[O-])c(C)c1`: 9.92 min; `CCOc1ccc(NC(=O)OC(C)C)cc1OCC`: 9.04 min. Next, `COc1cc2nc(N3CCN(C(=O)C4CCCO4)CC3)nc(N)c2cc1OC` (stereo not given): 4.92 min; `O=C(Oc1ccccc1)c1ccccc1C(=O)Oc1ccccc1`: 11.2 min. Take `O=c1[nH]c2ccccc2s1`: the LC retention time stood at 6.53 min.

Regarding `CCN(CC)C(=O)C1(c2ccccc2)CC1CN` (stereo not given), the LC retention time turned out to be 5.73 min. With `CC(N)Cc1ccc2[nH]ccc2c1` (stereo not given) the figure was 4.07 min; with `CC1CCCC(C)N1CCCC(O)(c1ccccc1)c1ccccn1` (stereo not given), 6.01 min; with `CCOC(=O)c1ccc(N)cc1`, 6.27 min.

Regarding `O=S(=O)(O)c1ccc2ccccc2c1`, the LC retention time is 5.44 min. With `O=c1[nH]c2c(c(=O)n1C1CCCCC1)CCC2` the figure was 8.27 min. With `COCCN(C(=O)CS(=O)(=O)O)c1c(C)cccc1C` the figure was 5.54 min; with `CCCc1nn(C)c2c(=S)nc(-c3cc(S(=O)(=O)N4CCN(CC)CC4)ccc3OCC)[nH]c12`, 10.6 min. Regarding `CCNC(C)C(=O)c1ccc2c(c1)OCO2` (stereo not given), the LC retention time is 4.04 min.

With `CCOP(=O)(Sc1ccccc1)Sc1ccccc1`, the LC retention time was 10.8 min. With `COP(=O)(OC)OC(C)=CC(=O)OC(C)c1ccccc1` (stereo not given) the figure was 9.39 min; with `CC12CCC(O)CC1CCC1C2C(=O)CC2(C)C1CCC2(O)C(=O)CO` (stereo not given), 9.21 min; with `CN1C2CCC1CC(OC(c1ccccc1)c1ccccc1)C2` (stereo not given), 7.97 min. Next, `C[N+]1([O-])CCN2c3ccccc3Cc3ccccc3C2C1` (stereo not given): 7.63 min; `CC(=O)OCC(=O)C12N=C(C)OC1CC1C3CCC4=CC(=O)C=CC4(C)C3C(O)CC12C` (stereo not given): 9.35 min. With `COP(N)(=S)Oc1ccccc1C(=O)OC(C)C` (stereo not given) the figure was 8.32 min; with `COc1cc(C=C2CCCC(=Cc3ccc(O)c(OC)c3)C2=O)ccc1O`, 9.59 min. As to `CC(C(=O)O)c1cccc(C(=O)c2ccccc2)c1` (stereo not given), the LC retention time came to 8.53 min.

`CCOC(=O)C1(c2ccccc2)CCN(CCC(C#N)(c2ccccc2)c2ccccc2)CC1`: the LC retention time stood at 10.4 min. As for `CCCCCn1cc(C(=O)Cc2ccccc2C)c2ccccc21`, the LC retention time amounted to 12.2 min. Next, `CC12C=CC3=C4CCC(=O)C=C4CCC3C1CCC2O` (stereo not given): 8.89 min. Turning to `Cc1ncc(CSSCc2cnc(C)c(O)c2CO)c(CO)c1O`, the LC retention time was found to be 5.54 min. For `CCCCCCC(C)(C)c1ccc(C2CCCC(O)C2)c(O)c1` (stereo not given), the LC retention time amounted to 13.1 min.

For `CC=CCC1=C(C)C(OC(=O)C2C(C=C(C)C(=O)OC)C2(C)C)CC1=O` (stereo not given), the LC retention time was 11.6 min. With `CCC(N)Cc1c[nH]c2ccccc12` (stereo not given) the figure was 5.04 min; with `CCOP(=S)(OCC)SCCS(=O)CC` (stereo not given), 7.86 min; with `CCCCc1c(C)nc(N(C)C)[nH]c1=O`, 7.7 min. With `COc1ccc(CC(C)NCC(O)c2ccc(O)c(NC=O)c2)cc1` (stereo not given) the figure was 4.79 min; with `CCOC(=O)CC(SP(=S)(OC)OC)C(=O)OCC` (stereo not given), 9.59 min; with `COc1cccc(C(=O)CCNC(C)C(O)c2ccccc2)c1` (stereo not given), 6.14 min. Next, `Nc1ccc(S(=O)(=O)Nc2ccccn2)cc1`: 3.8 min; `CNC(=O)Oc1cccc2c1OC(C)(C)C2`: 7.01 min; `O=C(O)CCCCn1cc(C(=O)c2cccc3ccccc23)c2ccccc21`: 9.71 min. As to `c1ccc(CN(CC2=NCCN2)c2ccccc2)cc1`, the LC retention time is 6.41 min.

Turning to `COc1cccc2c(C(=O)NC3C4(C)CCC(C4)C3(C)C)cn(CCN3CCOCC3)c12` (stereo not given), the LC retention time is 11.7 min. As to `CCC1(c2cccc(O)c2)CCCCN(C)C1` (stereo not given), the LC retention time was 4.74 min. With `CCCNCC(O)COc1ccccc1C(=O)CCc1ccccc1` (stereo not given) the figure was 7.81 min; with `CCCc1nn(C)c2c(=O)[nH]c(-c3cc(S(=O)(=O)N4CCN(CCO)CC4)ccc3OCC)nc12`, 7.83 min; with `CCNC1C2CCC(C2)C1c1ccccc1` (stereo not given), 6.08 min. Next, `CNC(=O)Oc1cc(C)c(SC)c(C)c1`: 9.34 min; `Cc1c(N)c(=O)n(-c2ccccc2)n1C`: 4.69 min; `CC(=O)OC1CCC2C3CCC4CC(=O)C=C(C)C4(C)C3CCC12C` (stereo not given): 12.5 min. Next, `COc1ccc(CCN(C)CCCC(C#N)(c2ccc(OC)c(OC)c2)C(C)C)cc1OC` (stereo not given): 7.03 min; `CCCOc1ccc(C(=O)CCN2CCCCC2)cc1`: 6.24 min; `CCOC(=O)CCN(SN(C)C(=O)Oc1cccc2c1OC(C)(C)C2)C(C)C`: 11.9 min. In the case of `CC1=C(C(=O)O)N2C(=O)C(NC(=O)C(N)c3ccccc3)C2SC1` (stereo not given), the LC retention time was found to be 4.08 min. Next, `COC(=O)C1=COC(C)C2CN3CCc4c([nH]c5ccccc45)C3CC12` (stereo not given): 6.66 min.

As to `CNCC12CCC(c3ccccc31)c1ccccc12`, the LC retention time came to 6.52 min. Next, `CNC(=O)Oc1cc(C)cc(C(C)C)c1`: 9.51 min.

Turning to `CN1CCCC(CC2c3ccccc3Sc3ccccc32)C1` (stereo not given), the LC retention time was 8.51 min. Next, `CC(C)Nc1nc(NC(C)C)[nH]c(=O)n1`: 5.96 min; `COc1ccc2c(c1)N(CC(C)CN(C)C)c1ccccc1S2` (stereo not given): 8.14 min; `CN(C)C(=O)NC1CCCCCCC1`: 8.47 min.

As for `CCCCn1cc(C(=O)c2c(C)ccc3ccccc23)c2ccccc21`, the LC retention time came out at 12.3 min.

Source of the values: the RepoRT retention time repository (doi:10.1016/j.jhazmat.2019.121712).
